{"source": "patent US8436007B2", "about": "“Inhibitors of protein kinases” (Ingenium Pharmaceuticals GmbH, priority 2007, dated 2013)", "key": {"[1]": {"test_system": "IL6 expression in LPS induced THP-1 macrophages", "test": "In vitro THP-1 assay: IL6 expression in LPS-induced THP-1 macrophages (ELISA of supernatant)", "format": "cell-based, human", "conditions": "differentiated THP-1 cells, 60 min pre-incubation with compound (0.5 to 5 μM), 100 ng/ml LPS for 4-48 h, triplicates", "protocol": "(§1) The human THP-1 cell line can be utilized as an in vitro model of cytokine expression as mediated by Lipopolysaccharide (LPS) or Tumor Necrosis Factorα [TNFα]. Monocytic THP-1 cells (ATCC; TIB-202) can be differentiated into macrophage-like cells expressing pro-inflammatory cytokines like TNFα, IL6 and IL1β upon induction with LPS or by TNFα (autocrine induction) itself. THP-1 cells are grown in modified RPMI-1640 medium (ATCC, Cat. No. 30-2001) supplemented with 10% FCS and 1% Pen/Strep. For cytokine inhibition assays, cells are seeded at a density of 5×10^5 cells/ml into 6-well plates in standard growth medium supplemented with 100 ng/ml PMA (Sigma, P1585) to induce differentiation into macrophage-like cells. After 24 hours, the medium is replaced with standard growth medium (without PMA) and the cells are incubated for another 48 hours to complete differentiation. After 72 h of differentiation, the medium is replaced with serum free growth medium, and CDK-inhibiting compounds as well as reference compounds such as positive and negative controls, each dissolved in DMSO are added at concentrations ranging from 0.5 to 5 μM (final concentration of DMSO in the well is 0.1%). Cells are incubated for 60 min with compounds prior to stimulation with 100 ng/ml LPS (Sigma, L2630) for another 4-48 hours. Supernatants are collected and assayed immediately for cytokine expression, e.g. for TNFα, IL-6 and IL-1b using commercially available sandwich ELISA assays (eBioscience, Cat. No 88-7346, 88-7066, 88-7010) or kept frozen at […] until evaluation. Concentrations of TNFα, IL6 and IL1β within the cell culture supernatants are measured by using commercial ELISA Kits (eBioscience) according to the manufacturers' instructions. CDK-inhibitory compounds #1, 5, 6, 8, and 9 were administered at to differentiated THP-1 cells in triplicates as described above (see section 2.). After 60 min of pre-incubation with test or reference compound (SB203580, a p38 inhibitor and BMS345541, an IKK-inhibitor) alone, cells were stimulated with LPS. After incubation for 4-48 h, supernatants were collected and ELISA based determinations of cytokine supernatant concentrations were performed as described in section 3, supra."}, "[2]": {"test_system": "TNFα expression in LPS induced THP-1 macrophages", "test": "In vitro THP-1 assay: TNFα expression in LPS-induced THP-1 macrophages (ELISA of supernatant)", "format": "cell-based, human", "conditions": "differentiated THP-1 cells, 60 min pre-incubation with compound (0.5 to 5 μM), 100 ng/ml LPS for 4-48 h, triplicates", "protocol": "as §1"}}, "note": "Entries after “also recorded” stand apart in the source; their conditions may differ.", "data": [{"smiles": "COc1ccccc1-c1ccnc(Nc2cccc(CS(N)(=O)=O)c2)n1", "note": "[Compound 1, {3-[4-(2-Methoxy-phenyl)-pyrimidin-2-ylamino]-phenyl}-methanesulfonamide]", "values": [{"measurement": "inhibition of IL6 protein concentration in the cell supernatant compared to vehicle (DMSO)", "setting": "[1]", "result": "significant inhibitory effect"}, {"measurement": "inhibition of TNFα expression / protein concentration in the cell supernatant compared to vehicle (DMSO)", "setting": "[2]", "result": "significant inhibitory effect; also recorded: significant inhibition"}]}, {"smiles": "COc1cc(F)ccc1-c1ccnc(Nc2cccc(CS(N)(=O)=O)c2)n1", "note": "[Compound 5, {3-[4-(4-Fluoro-2-methoxy-phenyl)-pyrimidin-2-ylamino]-phenyl}-methanesulfonamide]", "values": [{"measurement": "inhibition of IL6 protein concentration in the cell supernatant compared to vehicle (DMSO)", "setting": "[1]", "result": "significant inhibitory effect"}, {"measurement": "inhibition of TNFα expression / protein concentration in the cell supernatant compared to vehicle (DMSO)", "setting": "[2]", "result": "significant inhibitory effect; also recorded: significant inhibition"}]}, {"smiles": "COc1ccccc1-c1ccnc(Nc2cccc(CS(=O)(=O)NC3CC3)c2)n1", "note": "[Compound 6, N-Cyclopropyl-C-{3-[4-(2-methoxy-phenyl)-pyrimidin-2-ylamino]-phenyl}-methanesulfonamide]", "values": [{"measurement": "inhibition of IL6 protein concentration in the cell supernatant compared to vehicle (DMSO)", "setting": "[1]", "result": "significant inhibitory effect"}, {"measurement": "inhibition of TNFα expression / protein concentration in the cell supernatant compared to vehicle (DMSO)", "setting": "[2]", "result": "significant inhibitory effect; also recorded: significant inhibition"}]}, {"smiles": "COc1ccccc1-c1ccnc(Nc2cccc(CS(=O)(=O)N(C)CCO)c2)n1", "note": "[Compound 8, N-(2-Hydroxy-ethyl)-C-{3-[4-(2-methoxy-phenyl)-pyrimidin-2-ylamino]-phenyl}-N-methyl-methanesulfonamide]", "values": [{"measurement": "inhibition of IL6 protein concentration in the cell supernatant compared to vehicle (DMSO)", "setting": "[1]", "result": "significant inhibitory effect"}, {"measurement": "inhibition of TNFα expression / protein concentration in the cell supernatant compared to vehicle (DMSO)", "setting": "[2]", "result": "significant inhibitory effect; also recorded: significant inhibition"}]}, {"smiles": "COc1ccccc1-c1ccnc(Nc2cccc(CS(=O)(=O)CCO)c2)n1", "note": "[Compound 9, 2-{3-[4-(2-Methoxy-phenyl)-pyrimidin-2-ylamino]-phenylmethanesulfonyl}-ethanol]", "values": [{"measurement": "inhibition of IL6 protein concentration in the cell supernatant compared to vehicle (DMSO)", "setting": "[1]", "result": "significant inhibitory effect"}, {"measurement": "inhibition of TNFα expression / protein concentration in the cell supernatant compared to vehicle (DMSO)", "setting": "[2]", "result": "significant inhibitory effect; also recorded: significant inhibition"}]}]}
